Results taken from US8957087B2, “Heterocyclic substituted acardite derivate and application thereof” (Jiangsu Provincial Institute of Materia Medica Co., Ltd., priority 2009, dated 2015).
Read-outs that look alike come from different tables or passages of the source.

Columns and labels:
Raf-1(truncated) = assay: Raf-1 inhibitor screening by chemoluminescence method; format: biochemical; conditions: Final concentration 1 x 1.0*10^−5 mol/ml
Source text: 1. Inhibitory activity of the compound of the present invention on raf kinase
Raf-1 inhibitor screening by chemoluminescence method
Westernblot electrophoresis apparatus Rotaryshaker
Raf-1(truncated), Magnesium/ATP Cocktail, MEK1 unactive

[1] = system: human lung cancer cell strain A549; assay: MTT assay, inhibition of growth of human lung cancer cell strain A549; format: cell-based
Procedure: 4. Using 3-(4,5-dimethylthiazol-2-yl)-2,5-diphenyl tetrazolium bromide assay (MTT) to detect the inhibition effects on the growth of human lung cancer cell strain A549
[Test materials] MTT working solution, F12 medium containing 10% FBS, continuous injectors
(§1) [Tested compound] Compounds 1-38
(§2) [Positive control medicine] Sorafenib, compounds A′, B′, C′ with no substituent or only amino formyl in A ring
The inhibition rate is calculated as follows:
(§3) Relative OD value of conrol well=OD value of control well−OD value of blank well
(§4) Relative OD value of drug well=OD value of drug well−OD value of blank well

[2] = system: human high-metastic lung cancer cell 95D; assay: Inhibition of human high-metastic lung cancer cell 95D migration (Boyden Chamber Transwell); format: cell-based; conditions: Final concentration 1 x 1.0*10^(−5) mol/L
Procedure: 5 Inhibition effects of compounds on human high-metastic lung cancer cell 95D migration
[Test materials] Boyden Chamber Transwell chamber (with pore size of 8 μm), human high-metastic lung cancer cell 95D cell strain, 1640 medium containing 10% FBS, 1640 medium containing no serum
as §1, §2
(§5) The inhibition rate is calculated as follows: […]

lung cancer cell A549 = assay: Effects on the adhesive ability of lung cancer cell A549; format: cell-based, human; conditions: Final concentration 1 x 1.0*10^(−5) mol/L
Procedure: 6. Effects of tested compounds on the adhesive ability of lung cancer cell A549
[Test materials] gelatin, CCK8, poly-lysine (PLL), A549 cell stains, 1640 medium containing 10% FBS
(§6) [Tested compound] Compounds 1-38 to be tested
as §2, §5
Dosing dosing cells without cell group (gelatin adhesive OD/PLL adhesion OD)−Dosing cell group (gelatin adhesive OD/PLL adhesion OD value)
Dosing dosing cells without cell group (gelatin adhesive OD/PLL adhesion OD value)

[3] = system: human umbilical vein endothelial cell HUVEC; assay: Growth of human umbilical vein endothelial cell HUVEC by CCK8 method; format: cell-based; conditions: Final concentration 1 x 1.0*10^(−5) mol/L
Source text: 7. Effects of tested compounds on the growth of human umbilical vein endothelial cell HUVEC cell by CCK8 method
[Test materials] CCK8, human umbilical vein endothelial cell HUVEC cell, 1640 medium containing 10% FBS
as §6, §2, §3, §4

[4] = system: human umbilical vein endothelial cell HUVEC; assay: Lumen formation ability of HUVEC (Matrigel method); format: cell-based; conditions: Final concentration 1 x 1.0*10^(−5) mol/L
Source text: 8. Inhibition effects of compounds on the lumen formation ability of human umbilical vein endothelial cell HUVEC
[Experimental principles] The human umbilical vein endothelial cells have ability of spontaneously forming blood lumen on Matrigel, which can be used to simulate the process of angiogenesis in vivo. We used Matrigel method to investigate the effects of the compound on the lumen formation ability of human umbilical vein endothelial cell HUVEC.
[Test materials] HUVEC (taking generation 3 to 5 cells for experiments after obtained from primary separation and cultured at 37 under the conditions of 5% CO2), Matrigel, cell culture medium M199.
as §1, §2, §5

[5] = system: human lung cancer A549 transplantation tumor; format: in vivo; conditions: 60 mg/kg, 6 times every week for 3 weeks; for Relative tumor reproduction rate T/C (%) on human lung cancer A549 transplantation tumor in nude mice: BALB/cA nude mice, Sorafenib oral 60 mg/kg
Procedure: 9. Tumor inhibition rate of tested compounds on human lung cancer A549 cell transplantation model in nude mice
(§7) [Test animals] female BALB/cA nude mice, 35-40 days old, with weight of 18-22g. There were 12 mice in the negative conrol group and 6 mice in the treatment group.
(§8) The dosage of the compound was 60 mg/kg, 6 times every week for 3 weeks. […] Equal amount of normal saline was administrated in the negative control group. Observe for one week after administration.

[6] = system: human liver cancer cell bel-7402 transplantation tumor; format: in vivo; conditions: 60 mg/kg, 6 times every week for 3 weeks; for Relative tumor reproduction rate T/C (%) on human liver cancer cell bel-7402 transplantation tumor model in nude mice: BALB/cA nude mice, Sorafenib oral 60 mg/kg
Procedure: 10. Tumor inhibition rate of tested compounds on human liver cancer cell bel-7402 transplantation tumor model in nude mice
as §7, §8

[7] = system: renal carcinoma cell line GCR-1 transplanted tumor; format: in vivo, BALB/cA nude mice; conditions: 60 mg/kg, 6 times every week for 3 weeks; for Relative tumor reproduction rate T/C (%) on human renal carcinoma GCR-1 cell transplanted tumor model in nude mice: BALB/cA nude mice, Sorafenib oral 60 mg/kg
Procedure: 11. Tumor inhibition rate of medicines on renal carcinoma cell line GCR-1 transplanted tumor model in nude mice
as §7
[Test method] […] The dosage of the medicine was 60 mg/kg, 6 times every week for 3 weeks. […] Equal amount of normal saline was administrated in the negative control group. Observe for one week after administration.

mice S180 sarcoma = assay: Experimental therapeutic action on S180 sarcoma mice; conditions: for Tumor growth inhibition rate (%): mice S180 sarcoma, 60 mg/kg orally for 9 days
[8] = system: Human colon cancer HT-29 transplantable tumor; assay: Human colon cancer HT-29 transplantable tumor in nude mice; conditions: for Relative tumor reproduction rate T/C (%): HT-29 in nude mice
[9] = Final concentration 1 x 1.0*10^(−5) mol/L

| Compound | Inhibition rate % on raf kinase (Raf-1(truncated)) | Inhibition rate, growth of human lung cancer cell A549 [1, 9] | Inhibition rate, 95D cell strain migration [2] | Inhibition rate, adhesion ability of human lung cancer cell A549 (lung cancer cell A549) | Inhibition rate, growth of HUVEC cell [3] | Inhibition rate, lumen formation ability of HUVEC [4] | Relative tumor reproduction rate T/C (%) on human lung cancer A549 transplantation tumor in nude mice [5] | Relative tumor reproduction rate T/C (%) on human liver cancer cell bel-7402 transplantation tumor model in nude mice [6] | Relative tumor reproduction rate T/C (%) on human renal carcinoma GCR-1 cell transplanted tumor model in nude mice [7] | Tumor growth inhibition rate (%) (mice S180 sarcoma) | Relative tumor reproduction rate T/C (%) ([8]; 60 mg/kg ig 9 times) | Inhibition rate, growth of human lung cancer cell A549 [1] | further results |
| --- | --- | --- | --- | --- | --- | --- | --- | --- | --- | --- | --- | --- | --- |
| N-(4-chloro-3-(trifluoromethyl)phenyl)-N′-(4-(2-(N-methylaminoformoxyl)-4-(7 fluoroquinazolinyl)oxy)phenyl)urea [Compound 4] | 82.2% | 91.12% | 96.38% | 89.71% | 5.12% | 86.77% | 12.3% | 15.3% | 9.6% | 50.1% | 33.15% |  |  |
| CNC(=O)c1cc(Oc2ccc(NC(=O)Nc3ccc(Cl)c(C(F)(F)F)c3)cc2)c(C)[nH]1 [Compound 13, N-(4-chloro-3-(trifluoromethyl)phenyl)-N′-(4-(2-(N-methylaminoformoxyl)-4-(5-methyl-pyrryl)oxy)phenyl)urea] | 55.0% | 64.23% | 65.45% | 63.39% | 24.23% | 53.36% | 38.4% | 29.8% | 28.3% | 21.2% | 81.2% |  |  |
| CNC(=O)c1cc(Oc2ccc(NC(=O)Nc3ccc(Cl)c(C(F)(F)F)c3)cc2)ccn1 [Sorafenib, reference compound] | 85.7% |  | 62.32% | 72.66% | 22.61% | 55.60% |  |  |  |  |  | 54.60% | Mortality of the animals [5]: no mortality; Mortality of the animals [6]: no mortality; Mortality of the animals [7]: no mortality; Tumor weight x ± SD (mice S180 sarcoma; 60 mg/kg ig for 9 days, day 10): 0.71 ± 0.30 g; Tumor growth inhibition rate (%) (mice S180 sarcoma; 60 mg/kg): 55.9%; Tumor growth inhibition rate (%) (mice S180 sarcoma; listed as Sora, 60 mg/kg): 55.9%; Weight (g) d0 ([8]; nude mouse body weight d0, 60 mg/kg): 19.9 ± 1.1 g; Weight (g) d13 ([8]; nude mouse body weight d13, 60 mg/kg ig 9 times): 20.4 ± 1.4 g; RTV ([8]; relative tumor volume, 60 mg/kg ig 9 times): 2.36 ± 0.57; TV d0 ([8]; tumor volume d0, 60 mg/kg): 133 ± 33; TV d13 ([8]; tumor volume d13, 60 mg/kg ig 9 times): 308 ± 86 |
| CCc1cc(NC(=O)Nc2ccc(Oc3ccnc4cc(F)c(C)cc34)cc2)ccc1Cl [Compound 33, N-(4-chloro-3-ethylphenyl)-N′-(4-(4-(6-methyl-7-fluoro-quinolinyl)oxy)phenyl)urea] | 92.3% |  | 77.52% | 77.59% | 17.50% | 67.51% | 37.5% | 32.7% | 33.4% | 55.3% | 39.9% | 57.53% |  |
